In patent US9302999B2, “Substituted triazoles as herbicides” (E. I. DU PONT DE NEMOURS AND COMPANY, priority 2012, dated 2016):

How the values were obtained:
Assay type in all cases: in vivo
[1] = tested on: barnyardgrass (Echinochloa crus-galli); test: Test A pre-/postemergence: barnyardgrass; conditions: for Barnyardgrass plant response rating: Postemergence; for Plant response rating, Barnyardgrass: Preemergence
Summary of the method: (§1)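 Pre: directed soil spray after planting in loam + sand. Post: same formulation (non-phytotoxic solvent + surfactant) on 1–2-leaf plants, 2–10 cm. Greenhouse ~10 d; visual injury 0–100 vs untreated.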

[2] = tested on: velvetleaf (Abutilon theophrasti); test: Test A pre-/postemergence: velvetleaf; conditions: for Velvetleaf plant response rating: Postemergence; for Plant response rating, Velvetleaf: Preemergence
Summary of the method: as §1

[3] = tested on: rice (Oryza sativa); test: Test C flooded paddy test: rice; conditions: scale 0 to 100 (0 no effect, 100 complete control)
Summary of the method: (§2)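 2-leaf stage plants; pots flooded 3 cm above soil; compound applied into paddy water, depth maintained. Greenhouse 13–15 d. Visual rating vs controls, 0–100 (0 = no effect, 100 = complete control); dash = no result.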

[4] = tested on: foxtail, giant (giant foxtail, Setaria faberii); test: Test A pre-/postemergence: foxtail, giant; conditions: for Foxtail, Giant plant response rating: Postemergence; for Plant response rating, Foxtail, Giant: Preemergence
Summary of the method: as §1

[5] = tested on: corn (Zea mays); test: Test A pre-/postemergence: corn; conditions: for Corn plant response rating: Postemergence; for Plant response rating, Corn: Preemergence
Summary of the method: as §1

[6] = tested on: barnyardgrass (Echinochloa crus-galli); test: Test C flooded paddy test: barnyardgrass; conditions: scale 0 to 100 (0 no effect, 100 complete control)
Summary of the method: as §2

[7] = tested on: ducksalad (Heteranthera limosa); test: Test C flooded paddy test: ducksalad; conditions: scale 0 to 100 (0 no effect, 100 complete control)
Summary of the method: as §2

[8] = tested on: sedge, umbrella (small-flower umbrella sedge, Cyperus difformis); test: Test C flooded paddy test: sedge, umbrella; conditions: scale 0 to 100 (0 no effect, 100 complete control)
Summary of the method: as §2

[9] = tested on: wheat (Triticum aestivum); test: Test A pre-/postemergence: wheat; conditions: for Wheat plant response rating: Postemergence; for Plant response rating, Wheat: Preemergence
Summary of the method: as §1

[10] = tested on: crabgrass, large (large crabgrass, Digitaria sanguinalis); test: Test A pre-/postemergence: crabgrass, large; conditions: for Crabgrass, Large plant response rating: Postemergence; for Plant response rating, Crabgrass, Large: Preemergence
Summary of the method: as §1

[11] = tested on: morningglory (Ipomoea spp.); test: Test A pre-/postemergence: morningglory; conditions: for Morningglory plant response rating: Postemergence; for Plant response rating, Morningglory: Preemergence
Summary of the method: as §1

[12] = tested on: pigweed (Amaranthus retroflexus); test: Test A pre-/postemergence: pigweed; conditions: for Pigweed plant response rating: Postemergence; for Plant response rating, Pigweed: Preemergence
Summary of the method: as §1

[13] = 125 g ai/ha, 0 to 100 scale, 0 is no effect, 100 is complete control
[14] = 500 g ai/ha, visual rating on 0 to 100 scale (0 no effect, 100 complete control), approximately ten days
[15] = 125 g ai/ha, 0 to 100 scale (0 no effect, 100 complete control)
[16] = 500 g ai/ha, 0 to 100 scale, 0 is no effect, 100 is complete control
[17] = 125 g ai/ha, 0 to 100 scale where 0 is no effect and 100 is complete control
[18] = Flood (flooded paddy test), 125 g ai/ha, visual rating after 13 to 15 days
[19] = Flood (flooded paddy test), 250 g ai/ha, visual rating after 13 to 15 days

## Cc1nn(-c2cccc(I)c2)nc1C(=O)c1cccc(C(F)(F)F)c1 [Compound 90]
[1]; [13]
  Barnyardgrass plant response rating: 0
[1]; [14]
  Barnyardgrass plant response rating: 10
[1]; [15]
  Plant response rating, Barnyardgrass: 0
[1]; [16]
  Plant response rating, Barnyardgrass: 0
[2]; [13]
  Velvetleaf plant response rating: 0
[2]; [14]
  Velvetleaf plant response rating: 0
[2]; [17]
  Plant response rating, Velvetleaf: 0
[2]; [16]
  Plant response rating, Velvetleaf: 0
[3]; [18]
  Plant response rating, Rice: 0
[3]; [19]
  Plant response rating, Rice: 0
[3]; Flood, 31 g ai/ha
  Plant response rating, Rice: 0
[3]; Flood, 62 g ai/ha
  Plant response rating, Rice: 0
[4]; [13]
  Foxtail, Giant plant response rating: 0
[4]; [14]
  Foxtail, Giant plant response rating: 10
[4]; [17]
  Plant response rating, Foxtail, Giant: 0
[4]; [16]
  Plant response rating, Foxtail, Giant: 0
[5]; [13]
  Corn plant response rating: 0
[5]; [14]
  Corn plant response rating: 10
[5]; [15]
  Plant response rating, Corn: 0
[5]; [16]
  Plant response rating, Corn: 0
[6]; [18]
  Plant response rating, Barnyardgrass: 0
[6]; [19]
  Plant response rating, Barnyardgrass: 0
[6]; Flood, 31 g ai/ha
  Plant response rating, Barnyardgrass: 0
[6]; Flood, 62 g ai/ha
  Plant response rating, Barnyardgrass: 0
[7]; [18]
  Plant response rating, Ducksalad: 0
[7]; [19]
  Plant response rating, Ducksalad: 0
[7]; Flood, 31 g ai/ha
  Plant response rating, Ducksalad: 0
[7]; Flood, 62 g ai/ha
  Plant response rating, Ducksalad: 0
[8]; [18]
  Plant response rating, Sedge, Umbrella: 0
[8]; [19]
  Plant response rating, Sedge, Umbrella: 0
[8]; Flood, 31 g ai/ha
  Plant response rating, Sedge, Umbrella: 0
[8]; Flood, 62 g ai/ha
  Plant response rating, Sedge, Umbrella: 0
[9]; [13]
  Wheat plant response rating: 0
[9]; [14]
  Wheat plant response rating: 0
[9]; [17]
  Plant response rating, Wheat: 0
[9]; [16]
  Plant response rating, Wheat: 0
[10]; [13]
  Crabgrass, Large plant response rating: 0
[10]; [14]
  Crabgrass, Large plant response rating: 10
[10]; [15]
  Plant response rating, Crabgrass, Large: 0
[10]; [16]
  Plant response rating, Crabgrass, Large: 0
[11]; [13]
  Morningglory plant response rating: 0
[11]; [14]
  Morningglory plant response rating: 10
[11]; [17]
  Plant response rating, Morningglory: 0
[11]; [16]
  Plant response rating, Morningglory: 0
[12]; [13]
  Pigweed plant response rating: 0
[12]; [14]
  Pigweed plant response rating: 30
[12]; [17]
  Plant response rating, Pigweed: 0
[12]; [16]
  Plant response rating, Pigweed: 0

## Cc1nn(-c2ccccc2I)nc1C(=O)c1cccc(C(F)(F)F)c1 [Compound 91]
[1]; [13]
  Barnyardgrass plant response rating: 0
[1]; [14]
  Barnyardgrass plant response rating: 10
[1]; [15]
  Plant response rating, Barnyardgrass: 0
[1]; [16]
  Plant response rating, Barnyardgrass: 0
[2]; [13]
  Velvetleaf plant response rating: 0
[2]; [14]
  Velvetleaf plant response rating: 10
[2]; [17]
  Plant response rating, Velvetleaf: 0
[2]; [16]
  Plant response rating, Velvetleaf: 0
[3]; [18]
  Plant response rating, Rice: 0
[3]; [19]
  Plant response rating, Rice: 0
[3]; Flood, 31 g ai/ha
  Plant response rating, Rice: 0
[3]; Flood, 62 g ai/ha
  Plant response rating, Rice: 0
[4]; [13]
  Foxtail, Giant plant response rating: 0
[4]; [14]
  Foxtail, Giant plant response rating: 10
[4]; [17]
  Plant response rating, Foxtail, Giant: 0
[4]; [16]
  Plant response rating, Foxtail, Giant: 0
[5]; [13]
  Corn plant response rating: 10
[5]; [14]
  Corn plant response rating: 10
[5]; [15]
  Plant response rating, Corn: 0
[5]; [16]
  Plant response rating, Corn: 0
[6]; [18]
  Plant response rating, Barnyardgrass: 0
[6]; [19]
  Plant response rating, Barnyardgrass: 0
[6]; Flood, 31 g ai/ha
  Plant response rating, Barnyardgrass: 0
[6]; Flood, 62 g ai/ha
  Plant response rating, Barnyardgrass: 0
[7]; [18]
  Plant response rating, Ducksalad: 0
[7]; [19]
  Plant response rating, Ducksalad: 0
[7]; Flood, 31 g ai/ha
  Plant response rating, Ducksalad: 0
[7]; Flood, 62 g ai/ha
  Plant response rating, Ducksalad: 0
[8]; [18]
  Plant response rating, Sedge, Umbrella: 0
[8]; [19]
  Plant response rating, Sedge, Umbrella: 0
[8]; Flood, 31 g ai/ha
  Plant response rating, Sedge, Umbrella: 0
[8]; Flood, 62 g ai/ha
  Plant response rating, Sedge, Umbrella: 0
[9]; [13]
  Wheat plant response rating: 0
[9]; [14]
  Wheat plant response rating: 0
[9]; [17]
  Plant response rating, Wheat: 0
[9]; [16]
  Plant response rating, Wheat: 0
[10]; [13]
  Crabgrass, Large plant response rating: 0
[10]; [14]
  Crabgrass, Large plant response rating: 10
[10]; [15]
  Plant response rating, Crabgrass, Large: 0
[10]; [16]
  Plant response rating, Crabgrass, Large: 0
[11]; [13]
  Morningglory plant response rating: 0
[11]; [14]
  Morningglory plant response rating: 0
[11]; [17]
  Plant response rating, Morningglory: 0
[11]; [16]
  Plant response rating, Morningglory: 0
[12]; [13]
  Pigweed plant response rating: 10
[12]; [14]
  Pigweed plant response rating: 30
[12]; [17]
  Plant response rating, Pigweed: 0
[12]; [16]
  Plant response rating, Pigweed: 0

## Cc1nn(-c2ccc(Br)cc2)nc1C(=O)c1cccc(C(F)(F)F)c1 [Compound 92]
[1]; [13]
  Barnyardgrass plant response rating: 0
[1]; [14]
  Barnyardgrass plant response rating: 10
[1]; [15]
  Plant response rating, Barnyardgrass: 0
[1]; [16]
  Plant response rating, Barnyardgrass: 0
[2]; [13]
  Velvetleaf plant response rating: 20
[2]; [14]
  Velvetleaf plant response rating: 20
[2]; [17]
  Plant response rating, Velvetleaf: 0
[2]; [16]
  Plant response rating, Velvetleaf: 0
[3]; [18]
  Plant response rating, Rice: 0
[3]; [19]
  Plant response rating, Rice: 0
[3]; Flood, 31 g ai/ha
  Plant response rating, Rice: 0
[3]; Flood, 62 g ai/ha
  Plant response rating, Rice: 0
[4]; [13]
  Foxtail, Giant plant response rating: 10
[4]; [14]
  Foxtail, Giant plant response rating: 20
[4]; [17]
  Plant response rating, Foxtail, Giant: 10
[4]; [16]
  Plant response rating, Foxtail, Giant: 20
[5]; [13]
  Corn plant response rating: 10
[5]; [14]
  Corn plant response rating: 10
[5]; [15]
  Plant response rating, Corn: 0
[5]; [16]
  Plant response rating, Corn: 0
[6]; [18]
  Plant response rating, Barnyardgrass: 0
[6]; [19]
  Plant response rating, Barnyardgrass: 0
[6]; Flood, 31 g ai/ha
  Plant response rating, Barnyardgrass: 0
[6]; Flood, 62 g ai/ha
  Plant response rating, Barnyardgrass: 0
[7]; [18]
  Plant response rating, Ducksalad: 0
[7]; [19]
  Plant response rating, Ducksalad: 0
[7]; Flood, 31 g ai/ha
  Plant response rating, Ducksalad: 0
[7]; Flood, 62 g ai/ha
  Plant response rating, Ducksalad: 0
[8]; [18]
  Plant response rating, Sedge, Umbrella: 0
[8]; [19]
  Plant response rating, Sedge, Umbrella: 0
[8]; Flood, 31 g ai/ha
  Plant response rating, Sedge, Umbrella: 0
[8]; Flood, 62 g ai/ha
  Plant response rating, Sedge, Umbrella: 0
[9]; [13]
  Wheat plant response rating: 0
[9]; [14]
  Wheat plant response rating: 10
[9]; [17]
  Plant response rating, Wheat: 0
[9]; [16]
  Plant response rating, Wheat: 0
[10]; [13]
  Crabgrass, Large plant response rating: 10
[10]; [14]
  Crabgrass, Large plant response rating: 30
[10]; [15]
  Plant response rating, Crabgrass, Large: 10
[10]; [16]
  Plant response rating, Crabgrass, Large: 40
[11]; [13]
  Morningglory plant response rating: 10
[11]; [14]
  Morningglory plant response rating: 30
[11]; [17]
  Plant response rating, Morningglory: 0
[11]; [16]
  Plant response rating, Morningglory: 0
[12]; [13]
  Pigweed plant response rating: 30
[12]; [14]
  Pigweed plant response rating: 90
[12]; [17]
  Plant response rating, Pigweed: 0
[12]; [16]
  Plant response rating, Pigweed: 10
